# Where two headings read alike, the source gives them in different places.
# Tests used:
# [1] = system: 5HT1D receptor; conditions: cited from earlier work
# [2] = target: 5HT2A receptor (Homo sapiens, UniProt P28223); conditions: cited from earlier work
# [3] = system: 5HT2 receptor; conditions: rodents; cited from earlier work
# [4] = target: 5HT1B receptor (Homo sapiens, UniProt P28222); conditions: cited from earlier work
# [5] = system: upper airway high resistance syndrome; assay: double blind clinical study versus placebo in upper airway high resistance syndrome; type: in vivo, human; conditions: patients; gelatin capsule, for example 5 mg, daily with the evening meal
# Protocol: The effect of compound A is determined during a clinical study carried out according to a double blind design versus placebo in which patients with upper airway high resistance syndrome characterized by the presence of respiratory efforts with repeated wakefulness or microwakefulness and clinical symptoms such as diurnal somnolence and/or hypertension and/or fatigue and/or morning headache and/or nycturia, and the like took part. One gelatin capsule containing an active dose of compound A, for example 5 mg, is administered daily with the evening meal.
# [6] = target: T1, rat stomach fundus (5HT2B) (Rattus norvegicus, UniProt P30994); conditions: isolated tissue; indicates 5HT2A specificity versus 5HT2B; cited from earlier work
# T1 construct: from tissue; host or cells: rat stomach fundus (isolated tissue)
# T1 sequence (P30994 whole entry): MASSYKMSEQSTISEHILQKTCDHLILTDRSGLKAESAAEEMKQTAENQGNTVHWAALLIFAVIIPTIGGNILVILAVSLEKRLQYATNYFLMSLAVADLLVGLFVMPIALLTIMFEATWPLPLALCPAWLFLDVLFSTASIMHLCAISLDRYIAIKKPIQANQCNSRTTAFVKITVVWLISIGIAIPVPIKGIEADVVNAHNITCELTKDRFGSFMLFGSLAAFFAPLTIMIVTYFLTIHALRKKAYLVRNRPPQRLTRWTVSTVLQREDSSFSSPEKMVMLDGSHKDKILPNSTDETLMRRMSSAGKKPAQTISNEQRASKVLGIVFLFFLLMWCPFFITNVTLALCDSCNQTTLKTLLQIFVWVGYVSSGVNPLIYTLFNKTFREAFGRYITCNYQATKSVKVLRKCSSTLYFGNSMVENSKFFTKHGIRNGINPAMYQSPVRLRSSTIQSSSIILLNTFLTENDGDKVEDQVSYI
# [7] = system: slow wave sleep; assay: sleep study in young healthy subjects; type: in vivo, human; conditions: young (18 to 35 years old) healthy subjects
# [8] = target: T2, 5HT2C receptor (Homo sapiens, UniProt P28335); conditions: cited from earlier work
# T2 sequence (P28335 33-458): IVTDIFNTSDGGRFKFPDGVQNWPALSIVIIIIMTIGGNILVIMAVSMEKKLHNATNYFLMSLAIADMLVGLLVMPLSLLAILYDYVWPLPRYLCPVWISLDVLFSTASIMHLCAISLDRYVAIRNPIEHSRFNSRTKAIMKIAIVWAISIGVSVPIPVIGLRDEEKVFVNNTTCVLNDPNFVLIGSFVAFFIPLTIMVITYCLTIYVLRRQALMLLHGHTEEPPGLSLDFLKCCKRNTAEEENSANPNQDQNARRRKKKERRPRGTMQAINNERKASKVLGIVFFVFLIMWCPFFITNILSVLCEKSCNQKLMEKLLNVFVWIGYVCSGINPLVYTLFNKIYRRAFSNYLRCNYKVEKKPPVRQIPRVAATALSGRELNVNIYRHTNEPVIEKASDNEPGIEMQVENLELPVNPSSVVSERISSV
# [9] = target: T3, 5HT1A receptor (Homo sapiens, UniProt P08908); conditions: cited from earlier work
# T3 sequence (P08908 1-422): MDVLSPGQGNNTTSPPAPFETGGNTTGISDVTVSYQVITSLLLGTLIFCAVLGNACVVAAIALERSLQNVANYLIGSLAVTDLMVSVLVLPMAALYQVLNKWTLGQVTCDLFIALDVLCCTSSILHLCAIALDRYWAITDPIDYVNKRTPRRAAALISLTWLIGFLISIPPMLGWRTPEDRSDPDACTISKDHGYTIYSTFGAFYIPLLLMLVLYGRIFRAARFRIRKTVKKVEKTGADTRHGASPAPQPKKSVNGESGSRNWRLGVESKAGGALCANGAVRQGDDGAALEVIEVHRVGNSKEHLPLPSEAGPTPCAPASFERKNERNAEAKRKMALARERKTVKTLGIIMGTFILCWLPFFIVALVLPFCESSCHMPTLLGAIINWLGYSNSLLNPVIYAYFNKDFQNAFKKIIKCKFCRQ
# [10] = system: spinal 5HT2 receptors; conditions: newborn rat tissue preparations in vitro, cited from earlier work
# [11] = system: 5HT2 receptor; conditions: in vivo; cited from earlier work
# [12] = decerebrated newborn rats; cited from earlier work
# [13] = decerebrated newborn cats; high doses; cited from earlier work
# [14] = system: 5HT2 receptor; conditions: rats; cited from earlier work
# [15] = system: 5HT2 receptors; conditions: administered systemically; English bulldog; cited from earlier work
# Sequence of 5HT2A receptor (P28223 whole entry): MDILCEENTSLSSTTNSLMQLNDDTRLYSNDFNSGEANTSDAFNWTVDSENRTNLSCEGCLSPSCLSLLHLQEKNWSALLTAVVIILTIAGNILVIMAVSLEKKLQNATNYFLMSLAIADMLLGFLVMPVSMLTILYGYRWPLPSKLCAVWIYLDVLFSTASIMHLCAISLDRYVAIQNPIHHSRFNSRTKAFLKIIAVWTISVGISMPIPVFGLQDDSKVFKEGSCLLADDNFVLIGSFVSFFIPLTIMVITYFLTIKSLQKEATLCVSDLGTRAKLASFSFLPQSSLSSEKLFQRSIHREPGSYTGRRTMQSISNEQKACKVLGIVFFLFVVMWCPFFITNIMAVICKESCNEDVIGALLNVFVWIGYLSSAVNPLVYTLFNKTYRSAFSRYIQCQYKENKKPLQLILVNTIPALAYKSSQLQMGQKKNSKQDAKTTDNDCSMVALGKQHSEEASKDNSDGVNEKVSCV
# Sequence of 5HT1B receptor (P28222 whole entry): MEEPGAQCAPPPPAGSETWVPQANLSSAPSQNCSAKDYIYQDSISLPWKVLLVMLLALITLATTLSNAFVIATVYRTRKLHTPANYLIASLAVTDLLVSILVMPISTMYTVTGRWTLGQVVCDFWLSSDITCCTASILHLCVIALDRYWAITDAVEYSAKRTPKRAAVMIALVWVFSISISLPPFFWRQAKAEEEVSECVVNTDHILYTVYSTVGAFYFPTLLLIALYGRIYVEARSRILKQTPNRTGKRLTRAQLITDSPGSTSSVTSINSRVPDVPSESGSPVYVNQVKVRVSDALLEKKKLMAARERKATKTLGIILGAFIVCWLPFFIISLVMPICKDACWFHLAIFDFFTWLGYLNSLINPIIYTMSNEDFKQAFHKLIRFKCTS
structure (smiles),measurement,setting,value
"CN(C)CCO/N=C(/C=C/c1ccc(O)cc1)c1ccccc1F [compound A, (1Z,2E)-1-(2-fluorophenyl)-3-(4-hydroxyphenyl)prop-2-en-1-one-O-(2-dimethylaminoethyl)oxime hemifumarate]",affinity for the 5HT1D receptor,[1],no affinity
same,antagonism of the 5HT2A receptor,[2],antagonist which is specific for the 5HT2A receptor
same,binding in the brain,[3],predominantly binds to the regions of the brain containing the 5HT2 receptor
same,affinity for the 5HT1B receptor,[4],no affinity
same,clinical symptoms,[5],reduction
same,number of wakings or microwakings,[5],marked reduction
same,respiratory efforts,[5],marked reduction
same,activity on rat stomach fundus,[6],absence of activity
same,paradoxical sleep,[7],not being modified
same,stages 1 and 2 of slow wave sleep,[7],slightly reduced
same,duration of stages 3 and 4 of slow wave sleep,[7]; from the dose of 1 mg,doubling
same,affinity for the 5HT2C receptor,[8],moderate affinity
same,affinity for the 5HT1A receptor,[9],no affinity
same,depressant effect of 5-hydroxytryptamine on the activity of the hypoglossal nerve,[10],inhibits
same,tonic cervical activity induced by 5-hydroxytryptamine,[10]; pretreatment,prevents or significantly reduces
CN(C)CCSc1nc2ccccc2cc1-c1ccccc1 [ICI 169 369],slow wave sleep time,[11],regulate or increase
NCCc1c[nH]c2ccc(O)cc12 [5-hydroxytryptamine],apnea after administration,[12],no apnea
same,apnea after administration,[13],induced prolonged central apneas
O=C(c1ccc(F)cc1)C1CCN(CCn2c(=O)[nH]c3ccccc3c2=O)CC1 [ketanserin],apnea induced by 5-HT,[14],inhibit
same,increase in pulmonary resistance induced by 5-HT,[14],inhibit
Cc1nc2sccn2c(=O)c1CCN1CCC(=C(c2ccc(F)cc2)c2ccc(F)cc2)CC1 [ritanserin],activity of the diaphragm,[15],slight reduction
same,activity of the dilatory muscle of the upper respiratory tracts,[15],marked reduction
same,slow wave sleep time,[11],regulate or increase

# Reference: patent publication US6576670B1, “Use of a 5HT2A and 5HT2A/C receptor antagonist for treating snoring and high resistance syndrome of upper anatomical airways” (Sanofi—Synthelabo, priority 1998, dated 2003)
